Where two headings read alike, the source gives them in different places.
Legend:
[1] = system: veligers of quagga mussels; experiment: Efficiency in killing mollusk veligers, beaker exposure; conditions: approximately 20° C.
Method: Further testing was conducted specifically on veligers of quagga mussels collected from Lake Mead and utilizing citric acid and L-lactic acid. Trials were conducted using 2 replicate beakers per test interval at approximately 20° C. Test beakers (100 mL) were seeded with at least 200 veligers per replicate in 10 mL of veliger concentrate and filtered lake water and then dosed with 90 mL of prepared acid concentrate for each of the tested concentrations of lactic acid or citric acid. Stock acid solutions were measured by weight and added to filtered lake water to make the total volume needed. Controls were run concurrently with treatments and used filtered lake water instead of acid to add into the beaker. Exposure times included 1, 5, and 15 minutes, and 1 and 24 hours to assess mortality for the different concentrations of acids.
The exposure times were 5 minutes, 15 minutes, one hour, and 24 hours.
In the second test, the final concentrations of citric acid and L-lactic acid were 1% and 2% by weight for each acid. The exposure times were one minute and 5 minutes.

[2] = system: adult dreissenid mussels; experiment: Effective pH range determination, adult mussel mortality in pH-adjusted raw lake water
Method: To find an optimal pH range at which lactic acid effectively killed adult dreissenid mussels, raw lake water was placed in 4 L water containers and aerated. The pH was adjusted in three containers to about 2.8, 4, and 6, respectively, using lactic acid. The initial water parameters (temperature 20° C., pH 7.6, dissolved oxygen (DO) 7.73, Alkalinity 90 mg/l) were monitored. A fourth container, with no pH adjustment was used for control. Twenty adult mussels of various sizes were placed in each of the three containers. […] Mortality was defined as a gaping shell with the adult mussel not responding to gentle prodding of the flesh.
The experiment was repeated with the pH adjusted to about 5.

[3] = system: adult dreissenid mussels; conditions: pH about 4, warm water, after 72 hours

C[C@H](O)C(=O)O [L-lactic acid]
veliger mortality ([1]; 0.6% by weight, one hour exposure): 99%
veliger mortality ([1]; 2% by weight, five minute exposure): 86%

CC(O)C(=O)O (stereo not drawn) [lactic acid]
mortality ([2]; in vivo, pH 4): 100%
shell condition ([2]; pH 2.8, after 48 hours): shells were disintegrating
mortality ([2]; pH of 6, after 48 hours): no mortality
mortality [3]: complete mortality

From US20190202719A1, “METHOD FOR CONTROLLING MOLLUSK POPULATIONS” (priority 2016, published 2019)
